In US9480259B2, “Pyrazolopyrans having herbicidal and pharmaceutical properties” (BASF SE, priority 2012, dated 2016):

Molecular target: Arabidopsis thaliana SHMT
Test: SHMT activity assay (ED50 SHMT), coupled with N5,N10-CH2-THF dehydrogenase, NADH at 340 nm
Type: biochemical
Conditions: values given as upper bounds
In short: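 His-tagged SHMT purified on Ni-NTA. NADH formation followed at 340 nm for 30 min; ED50 from inhibition of initial velocity.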

[1] = Table 2, Arabidopsis thaliana SHMT enzyme assay

EC50 (Table 2) [nM]	EC50 [1] [nM]	Compound
< 1000		Cc1n[nH]c2c1C(c1cc(Cl)cc(Cl)c1)(C1CCCC1)C(C#N)=C(N)O2 (stereo not drawn) [Compound 2.199.]
< 100		Cc1n[nH]c2c1C(c1cc(Cl)cc(Oc3cccc(F)c3)c1)(C1CCC1)C(C#N)=C(N)O2 (stereo not drawn) [Compound 2.200.]
< 100		Cc1n[nH]c2c1C(c1cc(Cl)cc(Oc3ccc(F)cc3)c1)(C1CCC1)C(C#N)=C(N)O2 (stereo not drawn) [Compound 2.201.]
< 1000		COc1ccc(C2(C3CCCC3)C(C#N)=C(N)Oc3[nH]nc(C)c32)cc1Cl (stereo not drawn) [Compound 2.203.]
< 10000		CC(C)CC1(c2cc(Cl)cc(Cl)c2)C(C#N)=C(N)Oc2[nH]ncc21 (stereo not drawn) [Compound 2.205.]
< 10000		Cc1n[nH]c2c1C(c1cc(Cl)cc(Cl)c1)(C1CCCCC1)C(C#N)=C(N)O2 (stereo not drawn) [Compound 2.206.]
< 10		Cc1n[nH]c2c1C(c1cc(Cl)cc(Br)c1)(C1CCC1)C(C#N)=C(N)O2 (stereo not drawn) [Compound 2.207.]
< 10		COc1ccc(C2(C3CCC3)C(C#N)=C(N)Oc3[nH]nc(C)c32)cc1Br (stereo not drawn) [Compound 2.208.]
< 10		Cc1n[nH]c2c1C(c1cc(Cl)c(Cl)c(Cl)c1)(C1CCC1)C(C#N)=C(N)O2 (stereo not drawn) [Compound 2.209.]
< 100		Cc1n[nH]c2c1C(c1ccc(Cl)c(Cl)c1)(C1CCCC1)C(C#N)=C(N)O2 (stereo not drawn) [Compound 2.210.]
< 100		Cc1n[nH]c2c1C(c1cccc(Cl)c1)(C1CCCC1)C(C#N)=C(N)O2 (stereo not drawn) [Compound 2.211.]
< 10000		Cc1n[nH]c2c1C(c1ccc(Cl)c(Cl)c1)(C1CCCCC1)C(C#N)=C(N)O2 (stereo not drawn) [Compound 2.212.]
< 10		Cc1n[nH]c2c1C(c1cccc(C(F)(F)F)c1)(C1CCCC1)C(C#N)=C(N)O2 (stereo not drawn) [Compound 2.213.]
< 10		Cc1n[nH]c2c1C(c1cc(Cl)cc(Cl)c1)(C1(F)CC1)C(C#N)=C(N)O2 (stereo not drawn) [Compound 2.214.]
	< 10	COc1ccc(C2(C3CCCC3)C(C#N)=C(N)Oc3[nH]nc(C)c32)cc1C(F)(F)F (stereo not drawn) [Compound 2.215]
	< 10	Cc1n[nH]c2c1C(c1cc(Cl)cc(-c3ccoc3)c1)(C1CCC1)C(C#N)=C(N)O2 (stereo not drawn) [Compound 2.220]
	< 10	Cc1n[nH]c2c1C(c1cc(Cl)cc(C(F)(F)F)c1)(C1CCC1)C(C#N)=C(N)O2 (stereo not drawn) [Compound 2.221]
	< 10	COc1ccc(C2(C(C)C)C(C#N)=C(N)Oc3[nH]nc(C)c32)cc1Br (stereo not drawn) [Compound 2.222]
	< 10	Cc1n[nH]c2c1C(c1cc(Cl)cc(-c3cccc(F)c3)c1)(C1CCC1)C(C#N)=C(N)O2 (stereo not drawn) [Compound 2.223]
	< 10	Cc1n[nH]c2c1C(c1cc(Cl)cc(-c3ccc(F)cc3)c1)(C1CCC1)C(C#N)=C(N)O2 (stereo not drawn) [Compound 2.224]
	< 10	Cc1n[nH]c2c1C(c1cc(Cl)cc(-c3ccc(Cl)cc3)c1)(C1CCC1)C(C#N)=C(N)O2 (stereo not drawn) [Compound 2.225]
	< 10	Cc1n[nH]c2c1C(c1cc(Cl)cc(-c3ccc(O)cc3)c1)(C1CCC1)C(C#N)=C(N)O2 (stereo not drawn) [Compound 2.226]
	< 10	Cc1n[nH]c2c1C(c1cc(Cl)cc(-c3cccc(Cl)c3)c1)(C1CCC1)C(C#N)=C(N)O2 (stereo not drawn) [Compound 2.227]
	< 100	Cc1n[nH]c2c1C(c1ccc(F)c(Cl)c1)(C1CCCC1)C(C#N)=C(N)O2 (stereo not drawn) [Compound 2.228]
	< 10000	Cc1n[nH]c2c1C(c1cccc(C(F)(F)F)c1)(C1CCCCC1)C(C#N)=C(N)O2 (stereo not drawn) [Compound 2.230]
	< 10000	N#CC1=C(N)Oc2[nH]nc(O)c2C1(c1cc(F)cc(Cl)c1)C1CCC1 (stereo not drawn) [Compound 2.231]
	< 10	Cc1n[nH]c2c1C(c1cc(Br)cc(Br)c1)(C1CCC1)C(C#N)=C(N)O2 (stereo not drawn) [Compound 2.232]
	< 10	Cc1n[nH]c2c1C(c1cc(Br)cc(C(F)(F)F)c1)(C1CCC1)C(C#N)=C(N)O2 (stereo not drawn) [Compound 2.233]
	< 10	Cc1n[nH]c2c1C(c1cc(Cl)cc(Oc3cccc(C(F)(F)F)c3)c1)(C1CCC1)C(C#N)=C(N)O2 (stereo not drawn) [Compound 2.234]
	< 10	Cc1n[nH]c2c1C(c1cc(Cl)cc(Oc3ccccc3F)c1)(C1CCC1)C(C#N)=C(N)O2 (stereo not drawn) [Compound 2.235]
